In brackets after ≈: the same amount, converted by molar mass. Each block holds one molecule with its values, some of them ahead of it.
How the values were obtained:
in vitro [1] = details: human, plasma
[2] = Plasma protein binding, mouse plasma; assay type: in vitro ADME; details: mouse, plasma, mouse plasma protein binding; read-out: PPB (m) (converted)
[3] = Microsomal stability assay, mouse liver microsomes; assay type: in vitro ADME; details: for microsomal CLint at 10 µM: pooled liver microsomes, pH 7.4, read-out: Mics (m) CLint; for Mics (m) comp remaining 60 min: 10 μM
in vitro [4] = details: mouse, plasma
[5] = Kinetic solubility in PBS; assay type: physicochemical; details: phosphate-buffered saline, pH 7.4, aqueous buffer, kinetic from dmso stock
Method in brief: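 DMSO stocks diluted into PBS pH 7.4 to 100 μM and shaken 2 h at room temperature in duplicate, then filtered by centrifugation. Filtrates diluted 1:99 in 50% acetonitrile. Quantified by Echo-MS against calibration standards spanning 0.05–4 μM.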

[6] = Plasma protein binding, equilibrium dialysis, human plasma; assay type: in vitro ADME; details: undiluted plasma, human plasma protein binding, read-out: PPB (hu) (converted)
[7] = target: T1, recombinant human CD73 (hCD73) (Homo sapiens, UniProt P21589); assay: CD73 activity assay on recombinant human CD73; assay type: biochemical; details: ΔGexp = RT ln Ki
T1 sequence (P21589 27-574): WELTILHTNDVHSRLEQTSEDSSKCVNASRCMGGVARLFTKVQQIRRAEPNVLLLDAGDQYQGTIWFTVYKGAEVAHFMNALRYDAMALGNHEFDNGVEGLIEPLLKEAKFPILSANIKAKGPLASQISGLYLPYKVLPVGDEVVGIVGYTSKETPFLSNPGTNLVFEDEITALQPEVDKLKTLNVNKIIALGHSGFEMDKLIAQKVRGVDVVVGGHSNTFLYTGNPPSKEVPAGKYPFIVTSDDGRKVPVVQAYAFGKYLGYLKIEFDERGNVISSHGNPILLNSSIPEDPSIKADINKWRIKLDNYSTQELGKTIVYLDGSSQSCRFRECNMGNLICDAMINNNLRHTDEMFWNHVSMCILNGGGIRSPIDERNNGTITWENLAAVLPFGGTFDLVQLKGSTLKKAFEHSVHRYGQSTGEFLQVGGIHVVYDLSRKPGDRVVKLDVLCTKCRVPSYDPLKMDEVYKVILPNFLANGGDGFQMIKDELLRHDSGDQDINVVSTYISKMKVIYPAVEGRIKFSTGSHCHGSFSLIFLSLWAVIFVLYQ

HeLa S3 = assay: In vitro cytotoxic activity; assay type: cell-based; details: Homo sapiens
Description: (§1) All the compounds were also tested for their in vitro cytotoxic activity on a small panel of four cancer cell lines (CCRF-CEM, HepG2, HeLa S3, HL-60) and nonmalignant human dermal fibroblasts (NHDF).

[8] = system: nonmalignant human dermal fibroblasts (NHDF); assay: In vitro cytotoxic activity; assay type: cell-based
Description: as §1

CCRF-CEM = assay: In vitro cytotoxic activity; assay type: cell-based; details: Homo sapiens
Description: as §1

HL-60 = assay: In vitro cytotoxic activity; assay type: cell-based; details: Homo sapiens
Description: as §1

HepG2 = assay: In vitro cytotoxic activity; assay type: cell-based; details: Homo sapiens
Description: as §1

[9] = Microsomal stability assay, human liver microsomes; assay type: in vitro ADME; details: for Mics (hu) comp remaining 60 min: 10 μM; for microsomal CLint at 10 µM: pooled liver microsomes, pH 7.4, read-out: Mics (hu) CLint

SMILES: Nc1ccc(-c2nc(Cl)nc3c2ccn3[C@@H]2O[C@H](COP(=O)(O)CP(=O)(O)O)[C@@H](O)[C@H]2O)c2ccccc12 [7B.33]
half-life at 10 µM (in vitro [1]): > 2 h | fraction unbound at 4 h, 100 µM [2]: 0.374 | microsomal CLint at 10 µM [3]: < 2 µL/min/mg | half-life at 10 µM (in vitro [4]): > 2 h | solubility at 2 h [5]: > 100 µM | fraction unbound at 4 h, 100 µM [6]: ≤ 0.01 | dG_exp, experimental binding free energy [7]: –14.1 kcal/mol | IC50 (HeLa S3): 8.7 µM | IC50 [8]: 8.8 µM | IC50 (CCRF-CEM): 9.6 µM | IC50 (HL-60): 9.1 µM | IC50 (HepG2): 7.9 µM | Mics (hu) comp remaining 60 min [9]: 109% | microsomal CLint at 10 µM [9]: < 2 µL/min/mg

SMILES: O=P(O)(O)CP(=O)(O)OC[C@H]1O[C@@H](n2ccc3c(-c4ccc5ncccc5c4)ncnc32)[C@H](O)[C@@H]1O [4A.19]
half-life at 10 µM (in vitro [1]): > 2 h | fraction unbound at 4 h, 100 µM [2]: 0.685 | Mics (m) comp remaining 60 min [3]: 105% | microsomal CLint at 10 µM [3]: < 1 µL/min/mg | half-life at 10 µM (in vitro [4]): > 2 h | solubility at 2 h [5]: 85 µM (≈ 45.6 µg/mL) | fraction unbound at 4 h, 100 µM [6]: 0.048 | dG_exp, experimental binding free energy [7]: –12.7 kcal/mol | IC50 (HeLa S3): > 10 µM | IC50 [8]: > 10 µM | IC50 (CCRF-CEM): > 10 µM | IC50 (HL-60): 3.1 µM | IC50 (HepG2): > 10 µM | Mics (hu) comp remaining 60 min [9]: 94% | microsomal CLint at 10 µM [9]: < 1 µL/min/mg

SMILES: O=P(O)(O)CP(=O)(O)OC[C@H]1O[C@@H](n2ccc3c(-c4ccc5cnccc5c4)ncnc32)[C@H](O)[C@@H]1O [4A.21]
half-life at 10 µM (in vitro [1]): > 2 h | fraction unbound at 4 h, 100 µM [2]: 0.737 | Mics (m) comp remaining 60 min [3]: 79% | microsomal CLint at 10 µM [3]: 8 µL/min/mg | half-life at 10 µM (in vitro [4]): > 2 h | solubility at 2 h [5]: > 100 µM | fraction unbound at 4 h, 100 µM [6]: 0.054 | dG_exp, experimental binding free energy [7]: –13.1 kcal/mol | IC50 (HeLa S3): > 10 µM | IC50 [8]: > 10 µM | IC50 (CCRF-CEM): > 10 µM | IC50 (HL-60): 5.9 µM | IC50 (HepG2): > 10 µM | Mics (hu) comp remaining 60 min [9]: 95% | microsomal CLint at 10 µM [9]: 3 µL/min/mg

SMILES: Nc1nc(-c2ccco2)c2ccn([C@@H]3O[C@H](COP(=O)(O)CP(=O)(O)O)[C@@H](O)[C@H]3O)c2n1 [11C.1, [(5-{[2-Amino-4-(furan-2-yl)-7H-pyrrolo[2,3-d]pyrimidin-7-yl]-β-D-ribofuranosyl}oxy)phosphonomethyl]phosphonic Acid]
half-life at 10 µM (in vitro [1]): > 2 h | fraction unbound at 4 h, 100 µM [2]: 0.622 | Mics (m) comp remaining 60 min [3]: 103% | microsomal CLint at 10 µM [3]: < 1 µL/min/mg | half-life at 10 µM (in vitro [4]): > 2 h | solubility at 2 h [5]: > 100 µM | fraction unbound at 4 h, 100 µM [6]: 0.224 | dG_exp, experimental binding free energy [7]: –13.1 kcal/mol | IC50 (HeLa S3): > 10 µM | IC50 [8]: > 10 µM | IC50 (CCRF-CEM): > 10 µM | IC50 (HL-60): > 10 µM | IC50 (HepG2): > 10 µM | Mics (hu) comp remaining 60 min [9]: 107% | microsomal CLint at 10 µM [9]: < 1 µL/min/mg

SMILES: O=P(O)(O)CP(=O)(O)OC[C@H]1O[C@@H](n2ccc3c(-c4cnc5ccccc5c4)ncnc32)[C@H](O)[C@@H]1O [4A.20]
half-life at 10 µM (in vitro [1]): > 2 h | fraction unbound at 4 h, 100 µM [2]: 0.536 | Mics (m) comp remaining 60 min [3]: 110% | microsomal CLint at 10 µM [3]: < 1 µL/min/mg | half-life at 10 µM (in vitro [4]): > 2 h | solubility at 2 h [5]: > 100 µM | fraction unbound at 4 h, 100 µM [6]: 0.054 | dG_exp, experimental binding free energy [7]: –12.8 kcal/mol | IC50 (HeLa S3): > 10 µM | IC50 [8]: > 10 µM | IC50 (CCRF-CEM): > 10 µM | IC50 (HL-60): > 10 µM | IC50 (HepG2): > 10 µM | Mics (hu) comp remaining 60 min [9]: 88% | microsomal CLint at 10 µM [9]: 2 µL/min/mg

SMILES: O=P(O)(O)CP(=O)(O)OC[C@H]1O[C@@H](n2ccc3c(-c4ccc5cncnc5c4)ncnc32)[C@H](O)[C@@H]1O [4A.22]
half-life at 10 µM (in vitro [1]): > 2 h | fraction unbound at 4 h, 100 µM [2]: 0.948 | Mics (m) comp remaining 60 min [3]: 101% | microsomal CLint at 10 µM [3]: < 1 µL/min/mg | half-life at 10 µM (in vitro [4]): > 2 h | solubility at 2 h [5]: 66 µM (≈ 35.5 µg/mL) | fraction unbound at 4 h, 100 µM [6]: 0.113 | dG_exp, experimental binding free energy [7]: –12.9 kcal/mol | IC50 (HeLa S3): > 10 µM | IC50 [8]: > 10 µM | IC50 (CCRF-CEM): 9.9 µM | IC50 (HL-60): 4.8 µM | IC50 (HepG2): > 10 µM | Mics (hu) comp remaining 60 min [9]: 92% | microsomal CLint at 10 µM [9]: 4 µL/min/mg

Continued, in another order:

half-life at 10 µM (in vitro [1]): > 2 h | fraction unbound at 4 h, 100 µM [2]: 0.323 | Mics (m) comp remaining 60 min [3]: 106% | microsomal CLint at 10 µM [3]: < 1 µL/min/mg | half-life at 10 µM (in vitro [4]): > 2 h | solubility at 2 h [5]: 80 µM (≈ 44.3 µg/mL) | fraction unbound at 4 h, 100 µM [6]: 0.022 | dG_exp, experimental binding free energy [7]: –14.4 kcal/mol | Mics (hu) comp remaining 60 min [9]: 108% | microsomal CLint at 10 µM [9]: < 1 µL/min/mg
SMILES: Cc1nc(-c2cccc3c2CCCC3)c2ccn([C@@H]3O[C@H](COP(=O)(O)CP(=O)(O)O)[C@@H](O)[C@H]3O)c2n1 [18E.12]
IC50 (HeLa S3): > 10 µM | IC50 [8]: > 10 µM | IC50 (CCRF-CEM): > 10 µM | IC50 (HL-60): > 10 µM | IC50 (HepG2): > 10 µM

half-life at 10 µM (in vitro [1]): > 2 h | fraction unbound at 4 h, 100 µM [2]: 0.509 | Mics (m) comp remaining 60 min [3]: 88% | microsomal CLint at 10 µM [3]: 6 µL/min/mg | half-life at 10 µM (in vitro [4]): > 2 h | solubility at 2 h [5]: 80 µM (≈ 43.2 µg/mL) | fraction unbound at 4 h, 100 µM [6]: 0.084 | dG_exp, experimental binding free energy [7]: –11.8 kcal/mol | Mics (hu) comp remaining 60 min [9]: 102% | microsomal CLint at 10 µM [9]: < 1 µL/min/mg
SMILES: O=P(O)(O)CP(=O)(O)OC[C@H]1O[C@@H](n2cnc3c(-c4cccc5c4CCCC5)ncnc32)[C@H](O)[C@@H]1O [31A.12]
IC50 (HeLa S3): > 10 µM | IC50 [8]: > 10 µM | IC50 (CCRF-CEM): > 10 µM | IC50 (HL-60): > 10 µM | IC50 (HepG2): > 10 µM

half-life at 10 µM (in vitro [1]): > 2 h | fraction unbound at 4 h, 100 µM [2]: 0.183 | Mics (m) comp remaining 60 min [3]: 105% | microsomal CLint at 10 µM [3]: < 1 µL/min/mg | half-life at 10 µM (in vitro [4]): > 2 h | solubility at 2 h [5]: 85 µM (≈ 47 µg/mL) | fraction unbound at 4 h, 100 µM [6]: 0.024 | dG_exp, experimental binding free energy [7]: –14.2 kcal/mol | Mics (hu) comp remaining 60 min [9]: 112% | microsomal CLint at 10 µM [9]: < 1 µL/min/mg
SMILES: O=P(O)(O)CP(=O)(O)OC[C@H]1O[C@@H](n2ccc3c(-c4ccc5ccccc5c4)nc(F)nc32)[C@H](O)[C@@H]1O [14D.7]
IC50 (HeLa S3): > 10 µM | IC50 [8]: > 10 µM | IC50 (CCRF-CEM): > 10 µM | IC50 (HL-60): > 10 µM | IC50 (HepG2): > 10 µM

Reference: PMC12797170, “Potent Competitive Inhibitors of Ecto-5′-nucleotidase (CD73) based on 6‑(Het)aryl-7-deazapurine Ribonucleoside 5′‑O‑Bisphosphonates” (ACS Pharmacology & Translational Science, 2025)
